Data on 12 substances can be found in patent publication US20260258088A1, “DISC1-BINDING PEPTIDES AND THE USE THEREOF FOR THE TREATMENT AND DIAGNOSIS OF SCHIZOPHRENIA AND OTHER CHRONIC MENTAL DISORDERS” (FORSCHUNGSZENTRUM JUELICH GMBH, priority 2022, published 2026).

Changes are numbered by the printed parent chain. Ends that are not written are not given here.

Common to all, as to conditions: peptide immobilized, protein 2 μM, 25° C., TBS pH 7.4, KD = Koff/Kon
The target in experiment [1] is T1, DISC1 C-region (residues 691-836) mutant S713E (Homo sapiens, UniProt Q9NRI5, S713E).
T1 construct: DISC1 C-region (residues 691-836) mutant versions S704C, and/or 713E and/or L807-FS
T1 sequence (Q9NRI5 691-836 S713E): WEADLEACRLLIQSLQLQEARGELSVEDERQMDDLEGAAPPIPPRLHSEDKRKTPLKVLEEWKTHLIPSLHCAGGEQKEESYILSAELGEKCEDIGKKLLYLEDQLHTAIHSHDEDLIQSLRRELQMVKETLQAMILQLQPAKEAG
Description: Bio-layer interferometry (BLI) binding of immobilized peptides to S713E C-region. The method, then:
(§1) Bio-layer interferometry (BLI) for identification of peptide leads. Binding of the peptides with the C-region constructs (WT, S713E, S704C and L807-FS) were investigated using an Octet (ForteBio) instrument. Prior to measurements, all peptides were solubilized in phosphate buffered saline (PBS) containing 20 mM Na-phosphate, pH 7.4, and 150 mM NaCl. For coupling of the peptide (ligand), the A2RG sensor chip (Sartorius GmbH) were activated with 1-ethyl-3-(3-dimethylaminopropyl) carbodiimide (EDC)/N hydroxysuccinimide (NHS) (200 mM/50 mM); the peptides were diluted to 2 μM in 10 mM sodium acetate, pH 4.0, and immobilized to the sensor chip, and the flow cell was deactivated with 0.1 M ethanolamine-HCl, pH 8.5. Titrations of the above-mentioned C-region and the constructs were performed at 25° C. with TBS, pH 7.4 as the running buffer using protein concentrations of 2 μM without intermittent regeneration. Data analysis of peptide-protein interaction. In order to assess the binding isotherms of the protein to the immobilized peptides, I derived the binding affinity (KD) by computing the on-rate (Kon) and the off-rate (Koff) by deriving the reciprocals of the exponential fittings of association and dissociation (OriginPro 2020). The binding affinity (KD) was derived by dividing the off-rate (Koff) with the on-rate (Kon).

Experiment [2] deals with T2, DISC1 C-region (residues 691-836) mutant S704C (Homo sapiens, UniProt Q9NRI5, S704C).
T2 construct: DISC1 C-region (residues 691-836) mutant versions S704C, and/or 713E and/or L807-FS
T2 sequence (Q9NRI5 691-836 S704C): T1 sequence (Q9NRI5 691-836 S713E) with S14C, E23S
Description: Bio-layer interferometry (BLI) binding of immobilized peptides to S704C C-region. As for the experimental part: as §1

In experiment [3] the target is DISC1 C-region (residues 691-836) mutant L807-FS. As to the kind of experiment: Bio-layer interferometry (BLI) binding of immobilized peptides to L807-FS C-region. On the set-up: species or system human. As for the experimental part:
as §1

Experiment [4] addresses T3, wild-type (WT) human DISC1 C-region (residues 691-836) (Homo sapiens, UniProt Q9NRI5).
T3 construct: human DISC1 C-region (residues 691-836); His6 (N); made in house; host or cells: E. coli BL21 (DE3) pLysE T1R
T3 sequence (Q9NRI5 691-836): T1 sequence (Q9NRI5 691-836 S713E) with E23S
As to the kind of experiment: Bio-layer interferometry (BLI) binding of immobilized peptides to WT C-region. The method, then:
Protein expression and purification. The wild-type (WT) human DISC1 C-region (residues 691-836) was expressed alternatively as N-terminal His6—fusion construct, which was expressed as previously described using the E. coli BL21 (DE3) pLysE T1R cells. The culture was grown either in Luria-Bertani (LB) broth and protein expression was induced at an OD600 of 0.6 by the addition of 1 mM isopropyl-β-D-thiogalactopyranoside (IPTG) for 16 h at 18° C. Harvested cells were lysed using an ice-chilled microfluidizer M100P (Microfluidics MPT) at 15, 000 PSI in Tris-buffered saline (TBS) buffer containing 10 mM Tris-HCl pH 7.4, 150 mM NaCl and Complete EDTA-free protease inhibitor cocktail (Roche). The soluble fraction was purified on Co^2+-NTA resin (Qiagen) and was eluted using TBS containing 500 mM imidazole. In the next step, the WT C-region protein was further purified on a HiLoad 16/60 Superdex 200 size exclusion chromatography column (GE Healthcare Bio Sciences).
as §1, with “regeneration.” for “regeneration. Data analysis of peptide-protein interaction. In order to assess the binding isotherms of the protein to the immobilized peptides, I derived the binding affinity (KD) by computing the on-rate (Kon) and the off-rate (Koff) by deriving the reciprocals of the exponential fittings of association and dissociation (OriginPro 2020). The binding affinity (KD) was derived by dividing the off-rate (Koff) with the on-rate (Kon).”
Data analysis of peptide-protein interaction. In order to assess the binding isotherms of the protein to the immobilized peptides, I derived the binding affinity (KD) by computing the on-rate (Kon) and the off-rate (Koff) by deriving the reciprocals of the exponential fittings of association and dissociation (OriginPro 2020).
The binding affinity (KD) was derived by dividing the off-rate (Koff) with the on-rate (Kon).

With “AWQHHELKWKQYQGWR-NH2 [Flm2, AWQHHELKWKQYQGWR-NH2]”, the Kd in experiment [1] was 0.22 µM; in experiment [2] it was 0.15 µM; in experiment [3], 0.11 µM; in experiment [4], 0.64 µM.
Consider “FPHPTLKHREFMRHVS-NH2 [Flo1, FPHPTLKHREFMRHVS-NH2]”, for which the Kd in experiment [1] was determined as 0.07 µM; in experiment [2] it was 0.16 µM; in experiment [3], 0.04 µM; in experiment [4] it was 0.1 µM.
The matching figures for “GIKSLISNKMHTQWNY-NH2 [Flm5, GIKSLISNKMHTQWNY-NH2]”: 0.08 µM, 0.15 µM, 0.11 µM and 0.64 µM.
In the same order, the values of “HISMQTYKWSQWAKHQ-NH2 [Flo3, HISMQTYKWSQWAKHQ-NH2]” are 0.42 µM, 0.27 µM, 0.4 µM and 2.62 µM.
In the same order, the values of “HKLHHLLKWENQHKVE-NH2 [Flm11, HKLHHLLKWENQHKVE-NH2]” are 0.42 µM, 0.72 µM, 0.54 µM and 1.27 µM.
Regarding “IWAGHIHDWWRRGQGS-NH2 [Flm1, IWAGHIHDWWRRGQGS-NH2]”, the dissociation constant (Kd) stood at 0.08 µM in experiment [1], 0.08 µM in experiment [2], 0.2 µM in experiment [3] and 0.15 µM in experiment [4].
Regarding “KYTAIHEWYKAHNGGA-NH2 [Flo8, KYTAIHEWYKAHNGGA-NH2]”, the Kd in experiment [1] is 0.46 µM; in experiment [2], 1.04 µM; in experiment [3] it was 0.17 µM; in experiment [4], 2.62 µM.
With “PWYNAPHSHGFWGSGR-NH2 [Flm9, PWYNAPHSHGFWGSGR-NH2]”, the Kd in experiment [1] came to 1.5 µM; in experiment [2], 1.49 µM; in experiment [3], 0.39 µM; in experiment [4] it was 3.2 µM.
In the same order, the values of “QDNPWWHEHKHWKSWP-NH2 [Flo5, QDNPWWHEHKHWKSWP-NH2]” are 0.21 µM, 0.36 µM, 0.27 µM and 0.25 µM.
Consider “SNWHPRHFFMSPSSPQ-NH2 [Flo6, SNWHPRHFFMSPSSPQ-NH2]”, for which the Kd amounted to 0.46 µM in experiment [1], 0.72 µM in experiment [2], 0.17 µM in experiment [3] and 2.36 µM in experiment [4].
The matching figures for “TSGVPWWKFQQQVRRT-NH2 [Flo11, TSGVPWWKFQQQVRRT-NH2]”: 0.89 µM, 1.06 µM, 0.16 µM and 3.68 µM.
On to “WNHPMNIRSISWHKDS-NH2 [Flm6, WNHPMNIRSISWHKDS-NH2]”, for which the Kd is 1.07 µM in experiment [1], 2.24 µM in experiment [2], 0.53 µM in experiment [3] and 2.01 µM in experiment [4].
